Assay results: patent US11524966B1 (Valo Early Discovery, Inc., priority 2017, dated 2022)

Target: T1, USP25 (USP25-His6, Boston Biochem E-546) (Homo sapiens, UniProt Q9UHP3)
T1 construct: His6; purchased Boston Biochem E-546
T1 sequence (Q9UHP3 1-1055): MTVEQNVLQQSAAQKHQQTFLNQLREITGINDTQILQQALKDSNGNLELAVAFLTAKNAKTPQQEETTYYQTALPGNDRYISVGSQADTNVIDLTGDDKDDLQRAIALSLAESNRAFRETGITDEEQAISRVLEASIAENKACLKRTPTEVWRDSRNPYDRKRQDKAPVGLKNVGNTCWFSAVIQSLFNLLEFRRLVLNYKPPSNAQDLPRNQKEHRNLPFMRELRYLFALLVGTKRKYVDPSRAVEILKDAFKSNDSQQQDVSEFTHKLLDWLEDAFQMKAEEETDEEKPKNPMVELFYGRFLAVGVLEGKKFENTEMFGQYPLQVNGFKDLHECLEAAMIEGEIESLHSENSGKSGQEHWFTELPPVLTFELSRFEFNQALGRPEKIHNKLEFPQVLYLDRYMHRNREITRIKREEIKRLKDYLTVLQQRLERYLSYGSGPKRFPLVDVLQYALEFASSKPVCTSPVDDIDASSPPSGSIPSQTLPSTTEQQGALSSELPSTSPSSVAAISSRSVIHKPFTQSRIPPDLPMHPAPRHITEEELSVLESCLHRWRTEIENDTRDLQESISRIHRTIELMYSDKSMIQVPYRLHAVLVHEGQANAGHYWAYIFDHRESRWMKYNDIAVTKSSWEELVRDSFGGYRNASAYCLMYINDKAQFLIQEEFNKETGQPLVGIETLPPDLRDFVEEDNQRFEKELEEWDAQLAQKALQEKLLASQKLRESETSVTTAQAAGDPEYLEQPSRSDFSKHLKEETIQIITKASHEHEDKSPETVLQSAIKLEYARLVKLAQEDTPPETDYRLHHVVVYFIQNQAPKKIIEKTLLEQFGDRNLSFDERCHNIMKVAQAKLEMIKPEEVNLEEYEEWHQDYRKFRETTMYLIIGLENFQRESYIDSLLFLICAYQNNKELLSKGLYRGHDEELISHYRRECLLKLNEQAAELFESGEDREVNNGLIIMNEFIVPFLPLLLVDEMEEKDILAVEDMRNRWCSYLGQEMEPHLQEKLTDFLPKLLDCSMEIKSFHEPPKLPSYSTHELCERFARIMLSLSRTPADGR
Experiment: Ubiquitin-Rhodamine 110 Assay for USP25 Activity, Example A-2
Type: biochemical
Settings: Ubiquitin-Rhodamine 110 assay, Example A-2; read-out: USP25 A-2 IC50 range
In short: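 Read-out: Rh110 fluorescence (ex 485, em 535 nm) after 45 min RT turnover of 25 nM Ub-Rh110 by 75 pM USP25-His6, quenched with 10 mM citric acid. Compounds at 25 μM–1.3 nM, preincubated 30 min with enzyme. IC50 from 4-parameter logistic fit.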

First: Cc1ccc2c(N)c(C(=O)N[C@H]3COc4cc(N5CC[C@@H]6CC[C@@H](N)C[C@@H]65)ccc4C3)sc2n1 [Example 233, N-[(3R)-7-[(3aS,6R,7aS)-6-amino-octahydro-1H-indol-1-yl]-3,4-dihydro-2H-1-benzopyran-3-yl]-3-amino-6-methylthieno[2,3-b]pyridine-2-carboxamide]
Second: Cc1ccc2c(N)c(C(=O)N[C@H]3COc4cc(N5CC[C@@H]6CC[C@H](N)C[C@@H]65)ccc4C3)sc2n1 [Example 234, N-[(3R)-7-[(3aS,6S,7aS)-6-amino-octahydro-1H-indol-1-yl]-3,4-dihydro-2H-1-benzopyran-3-yl]-3-amino-6-methylthieno[2,3-b]pyridine-2-carboxamide]
The IC50 of the first is lower: 1 to 50 nM for the first, 50 to 200 nM for the second.

Cc1ccc2c(N)c(C(=O)N[C@H]3COc4cc(N5CC[C@H]6CNCC[C@H]65)ccc4C3)sc2n1 [Example 235, N-[(3R)-7-[(3aS,7aR)-octahydro-1H-pyrrolo[3,2-c]pyridin-1-yl]-3,4-dihydro-2H-1-benzopyran-3-yl]-3-amino-6-methylthieno[2,3-b]pyridine-2-carboxamide] and Cc1ccc2c(N)c(C(=O)N[C@H]3COc4cc(N5CC[C@@H]6CNCC[C@@H]65)ccc4C3)sc2n1 [Example 236, N-[(3R)-7-[(3aR,7aS)-octahydro-1H-pyrrolo[3,2-c]pyridin-1-yl]-3,4-dihydro-2H-1-benzopyran-3-yl]-3-amino-6-methylthieno[2,3-b]pyridine-2-carboxamide] fall in the same range of IC50: 50 to 200 nM for the first, 50 to 200 nM for the second.

Cc1ccc2c(N)c(C(=O)N[C@H]3COc4cc(N5C[C@@H]6NCCC(F)(F)[C@@H]6C5)ccc4C3)sc2n1 [Example 237, N-[(3R)-7-[(4aR,7aR)-4,4-difluoro-octahydro-1H-pyrrolo[3,4-b]pyridin-6-yl]-3,4-dihydro-2H-1-benzopyran-3-yl]-3-amino-6-methylthieno[2,3-b]pyridine-2-carboxamide] and Cc1ccc2c(N)c(C(=O)N[C@H]3COc4cc(N5C[C@H]6NCCC(F)(F)[C@H]6C5)ccc4C3)sc2n1 [Example 238, N-[(3R)-7-[(4aS,7aS)-4,4-difluoro-octahydro-1H-pyrrolo[3,4-b]pyridin-6-yl]-3,4-dihydro-2H-1-benzopyran-3-yl]-3-amino-6-methylthieno[2,3-b]pyridine-2-carboxamide] fall in the same range of IC50: 200 to 2000 nM for the first, 200 to 2000 nM for the second.

CO[C@H]1CN(c2ccc3c(n2)CC[C@H](NC(=O)c2sc4nc(C)ccc4c2N)C3)C[C@]1(C)N [Example 239, 3-amino-N-[(6S)-2-[(3S,4S)-3-amino-4-methoxy-3-methylpyrrolidin-1-yl]-5,6,7,8-tetrahydroquinolin-6-yl]-6-methylthieno[2,3-b]pyridine-2-carboxamide] and CO[C@@H]1CN(c2ccc3c(n2)CC[C@H](NC(=O)c2sc4nc(C)ccc4c2N)C3)C[C@@]1(C)N [Example 240, 3-amino-N-[(6S)-2-[(3R,4R)-3-amino-4-methoxy-3-methylpyrrolidin-1-yl]-5,6,7,8-tetrahydroquinolin-6-yl]-6-methylthieno[2,3-b]pyridine-2-carboxamide] cannot be ordered by IC50: > 2000 nM for the first, > 2000 nM for the second.

First: Cc1cc(C)c2c(N)c(C(=O)N[C@H]3COc4cc(N5CC6CCC(C5)N6)c(C#N)c(F)c4C3)sc2n1 [Example 241, 3-amino-N-[(3R)-6-cyano-7-{3,8-diazabicyclo[3.2.1]octan-3-yl}-5-fluoro-3,4-dihydro-2H-1-benzopyran-3-yl]-4,6-dimethylthieno[2,3-b]pyridine-2-carboxamide]
Second: COC[C@@H]1CN(c2cc(F)c3c(c2)OC[C@H](NC(=O)c2sc4nc(C)ccc4c2N)C3)C[C@@H]1N [Example 250, 3-amino-N-[(3R)-7-[(3R,4R)-3-amino-4-(methoxymethyl)pyrrolidin-1-yl]-5-fluoro-3,4-dihydro-2H-1-benzopyran-3-yl]-6-methylthieno[2,3-b]pyridine-2-carboxamide]
The IC50 of the first is lower: 1 to 50 nM for the first, 200 to 2000 nM for the second. The first is the more potent here.

First: Cc1ccc2c(N)c(C(=O)N[C@H]3COc4cc(N5CCC[C@@H]6CNC[C@@H]65)ccc4C3)sc2n1 [Example 242, N-[(3R)-7-[(4aR,7aR)-octahydro-1H-pyrrolo[3,4-b]pyridin-1-yl]-3 ,4-dihydro-2H-1-benzopyran-3-yl]-3-amino-6-methylthieno[2,3-b]pyridine-2-carboxamide]
Second: Cc1ccc2c(N)c(C(=O)N[C@H]3COc4cc(N5CCC[C@H]6CNC[C@H]65)ccc4C3)sc2n1 [Example 243, N-[(3R)-7-[(4aS,7aS)-octahydro-1H-pyrrolo[3,4-b]pyridin-1-yl]-3,4-dihydro-2H-1-benzopyran-3-yl]-3-amino-6-methylthieno[2,3-b]pyridine-2-carboxamide]
The IC50 of the first is higher: 50 to 200 nM for the first, 1 to 50 nM for the second. The second is the more potent here.

First: Cc1ccc2c(N)c(C(=O)N[C@H]3COc4cc(N5C[C@H](N)CC[C@@H]5C(F)(F)F)ccc4C3)sc2n1 [Example 244, 3-amino-N-[(3R)-7-[(2R,5R)-5-amino-2-(trifluoromethyl)piperidin-1-yl]-3,4-dihydro-2H-1-benzopyran-3-yl]-6-methylthieno[2,3-b]pyridine-2-carboxamide]
Second: Cc1ccc2c(N)c(C(=O)N[C@H]3COc4cc(N5C[C@@H](N)CC[C@H]5C(F)(F)F)ccc4C3)sc2n1 [Example 245, 3-amino-N-[(3R)-7-[(2S,5S)-5-amino-2-(trifluoromethyl)piperidin-1-yl]-3,4-dihydro-2H-1-benzopyran-3-yl]-6-methylthieno[2,3-b]pyridine-2-carboxamide]
The IC50 of the first is lower: 1 to 50 nM for the first, 50 to 200 nM for the second. The first is the more potent here.

First: Cc1ccc2c(N)c(C(=O)N[C@H]3COc4cc(N5C[C@@H](N)CC[C@@H]5C(F)(F)F)ccc4C3)sc2n1 [Example 246, 3-amino-N-[(3R)-7-[(2R,5S)-5-amino-2-(trifluoromethyl)piperidin-1-yl]-3,4-dihydro-2H-1-benzopyran-3-yl]-6-methylthieno[2,3-b]pyridine-2-carboxamide]
Second: Cc1ccc2c(N)c(C(=O)N[C@H]3COc4cc(N5C[C@H](N)CC[C@H]5C(F)(F)F)ccc4C3)sc2n1 [Example 247, 3-amino-N-[(3R)-7-[(2S,5R)-5-amino-2-(trifluoromethyl)piperidin-1-yl]-3,4-dihydro-2H-1-benzopyran-3-yl]-6-methylthieno[2,3-b]pyridine-2-carboxamide]
The IC50 of the first is lower: 1 to 50 nM for the first, 50 to 200 nM for the second.

First: Cc1ccc2c(N)c(C(=O)N[C@H]3COc4cc(N5CC6CCC[C@@]6(N)C5)ccc4C3)sc2n1 (stereo partly drawn) [Example 248, N-[(3R)-7-[(3aS)-3a-amino-octahydrocyclopenta[c]pyrrol-2-yl]-3,4-dihydro-2H-1-benzopyran-3-yl]-3-amino-6-methylthieno[2,3-b]pyridine-2-carboxamide]
Second: Cc1ccc2c(N)c(C(=O)N[C@H]3COc4cc(N5CC6CCC[C@]6(N)C5)ccc4C3)sc2n1 (stereo partly drawn) [Example 249, N-[(3R)-7-[(3aR)-3a-amino-octahydrocyclopenta[c]pyrrol-2-yl]-3,4-dihydro-2H-1-benzopyran-3-yl]-3-amino-6-methylthieno[2,3-b]pyridine-2-carboxamide]
The IC50 of the first is higher: 200 to 2000 nM for the first, 50 to 200 nM for the second.

First: COC[C@H]1CN(c2cc(F)c3c(c2)OC[C@H](NC(=O)c2sc4nc(C)ccc4c2N)C3)C[C@H]1N [Example 251, 3-amino-N-[(3R)-7-[(3S,4S)-3-amino-4-(methoxymethyl)pyrrolidin-1-yl]-5-fluoro-3,4-dihydro-2H-1-benzopyran-3-yl]-6-methylthieno[2,3-b]pyridine-2-carboxamide]
Second: COC[C@@H]1CN(c2ccc3c(c2)CC[C@H](NC(=O)c2sc4nc(C)ccc4c2N)C3)C[C@@H]1N [Example 252, 3-amino-N-[(2S)-6-[(3R,4R)-3-amino-4-(methoxymethyl)pyrrolidin-1-yl]-1,2,3,4-tetrahydronaphthalen-2-yl]-6-methylthieno[2,3-b]pyridine-2-carboxamide]
The IC50 of the first is lower: 50 to 200 nM for the first, 200 to 2000 nM for the second. The first is the more potent here.

First: COC[C@H]1CN(c2ccc3c(c2)CC[C@H](NC(=O)c2sc4nc(C)ccc4c2N)C3)C[C@H]1N [Example 253, 3-amino-N-[(2S)-6-[(3S,4S)-3-amino-4-(methoxymethyl)pyrrolidin-1-yl]-1,2,3,4-tetrahydronaphthalen-2-yl]-6-methylthieno[2,3-b]pyridine-2-carboxamide]
Second: CCO[C@@H]1CN(c2ccc3c(n2)CC[C@H](NC(=O)c2sc4nc(C)ccc4c2N)C3)C[C@@H]1N [Example 254, 3-amino-N-[(6S)-2-[(3S,4R)-3-amino-4-ethoxypyrrolidin-1-yl]-5,6,7,8-tetrahydroquinolin-6-yl]-6-methylthieno[2,3-b]pyridine-2-carboxamide]
The IC50 of the first is lower: 200 to 2000 nM for the first, > 2000 nM for the second.
